Experimental data: the NIST ThermoML archive (doi:10.1007/s10765-017-2256-0)
“And” between values parts separate entries of the source, which are not always exact repeats. Identical values can stand only once.

Settings: for mass density: 407.69 K, Fluid (supercritical or subcritical phases), Bellows volumetry

CC(C)C [2-methylpropane]
Settings	mass density
3627.5 kPa	203.1 kg/m3
3629.3 kPa	205.78 kg/m3
3631.2 kPa	208.58 kg/m3
3632.8 kPa	211.59 kg/m3
3634 kPa	214.88 kg/m3
3634.8 kPa	218.47 kg/m3
3635.3 kPa	222.42 kg/m3
3635.4 kPa	223.5 kg/m3
3635.7 kPa	225.57 kg/m3 and 226.64 kg/m3
3636.3 kPa	228.77 kg/m3
3637 kPa	230.86 kg/m3
3638.4 kPa	235.26 kg/m3
3639.6 kPa	239.96 kg/m3
3641.1 kPa	244.93 kg/m3

Settings	Critical temperature [K]
Liquid, Visual observation in a stirred cell	407.69
